Test results taken from patent US20240216372A1, “THERAPEUTICS FOR KELOIDS AND OTHER FIBROTIC DISORDERS” (Florida State University Research Foundation, Inc., priority 2022, published 2024).

Assays:
[1] = system: keloid dermal fibroblasts; experiment: keloid fibroblast proliferation; format: cell-based, human; details: for effect on keloid fibroblast proliferation / sensitivity of keloid dermal fibroblasts to the drug (effective concentration range): patient-derived keloid dermal fibroblasts; for sensitivity of keloid fibroblasts compared to normal HDFs: keloid fibroblasts versus normal HDFs
[2] = system: normal primary human dermal fibroblasts (HDFs); experiment: normal HDF proliferation; format: cell-based
[3] = system: Insulin-like Growth Factor 2 (IGF2) signaling; details: general statement, no test described; cited from earlier work

Which “effect on keloid fibroblast proliferation” value [1] does the source give for `COc1ccc(CCN(C)CCCC(C#N)(c2ccc(OC)c(OC)c2)C(C)C)cc1OC` (stereo not drawn) [Verapamil] here?
The value was “inhibits the proliferation of keloid fibroblasts”.

For `CNC(=O)Nc1ccc2c(c1)CC[C@@]21OC(=O)N(CC(=O)N(Cc2ccc(F)cc2)[C@@H](C)C(F)(F)F)C1=O` [A485], which “sensitivity of keloid fibroblasts compared to normal HDFs” value [1] is on record?
The value was “much more sensitive”.

What does the source list for `O=C(O)C(=O)c1cn(Cc2ccccc2)c2ccc(-c3ccc(OC(F)(F)F)cc3)cc12` [Tiplaxtinin]?
sensitivity of keloid fibroblasts compared to normal HDFs [1]: preferentially blocks keloid fibroblast proliferation over normal HDF proliferation; sensitivity of keloid dermal fibroblasts to the drug (effective concentration range) [1]: low micromolar range; sensitivity / proliferation of normal HDFs [2]: not significantly sensitive

Which “sensitivity of keloid fibroblasts compared to normal HDFs” value [1] does the source give for `COc1cc(/C=C/C(=O)CC(=O)/C=C/c2ccc(O)c(OC)c2)ccc1O` [Curcumin] here?
The value was “much more sensitive”.

For `CN(C)c1ccc2c(c1)OC(N)=C(C#N)C2c1cccc(C(F)(F)F)c1` (stereo not drawn) [Chromeceptin], which “effect on keloid fibroblast proliferation” value [1] is on record?
The value was “blocks keloid fibroblast proliferation”.

What about the “sensitivity of keloid dermal fibroblasts to the drug (effective concentration range)” value [1] of the same compound?
Its value is “sensitive”.

What about the “effective range as inhibitor of IGF2 signaling” value [3] of the same compound?
Its value is “low nanomolar range”.
